The supplement of paper PMC6045584
± gives the standard deviation of the averaged measurements.

Key:
[1] = compound: CS(=O)(=O)CCNCc1ccc(-c2ccc3ncnc(Nc4ccc(OCc5cccc(F)c5)c(Cl)c4)c3c2)o1 [LAPATINIB]; test: surviving fraction relative to DMSO-only wells; higher = less growth inhibition; details: exposure time: 5 days
Procedure, shortened: (§1)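 Inhibitors were tested at 0.5, 1, 5, 10, 50, 100, 500 and 1000 nM, applied continuously for five days beginning 24 hours after log-phase tumour cells were seeded at 250–500 per well in 384-well plates. CellTiter-Glo luminescence served as the viability measure, expressed as surviving fraction against the median of DMSO-only wells. Each line, screened three times, was kept only with replicate Pearson r >0.7 and median Z' >0.3.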

[2] = compound: Oc1ccc(/C=C/c2cc(O)cc(O)c2)cc1 [RESVERATROL]; test: as above; details: exposure time: 5 days
Procedure, shortened: as §1

Row | Test System | surviving fraction ([1]; 0.5 nM) | surviving fraction ([1]; 1 nM) | surviving fraction ([1]; 5 nM) | surviving fraction ([1]; 10 nM) | surviving fraction ([1]; 50 nM) | surviving fraction ([1]; 100 nM) | surviving fraction ([1]; 500 nM) | surviving fraction ([1]; 1000 nM) | surviving fraction ([2]; 0.5 nM) | surviving fraction ([2]; 1 nM) | surviving fraction ([2]; 5 nM) | surviving fraction ([2]; 10 nM) | surviving fraction ([2]; 50 nM) | surviving fraction ([2]; 100 nM) | surviving fraction ([2]; 500 nM) | surviving fraction ([2]; 1000 nM)
1 | SG27 HEADNECK | 1.09 ± 0.081 | 1.09 ± 0.056 | 1.1 ± 0.27 | 1.18 ± 0.17 | 0.977 ± 0.14 | 1.04 ± 0.067 | 0.988 ± 0.026 | 1.06 ± 0.06 | 1.15 ± 0.14 | 1.02 ± 0.069 | 1.03 ± 0.067 | 1.06 ± 0.1 | 1.04 ± 0.083 | 1.17 ± 0.059 | 1.15 ± 0.085 | 1.08 ± 0.12
2 | SG28 HEADNECK | 0.979 ± 0.1 | 1.07 ± 0.03 | 0.851 ± 0.11 | 1.03 ± 0.042 | 0.764 ± 0.043 | 0.775 ± 0.079 | 0.599 ± 0.057 | 0.563 ± 0.021 | 1.03 ± 0.12 | 1.07 ± 0.1 | 1.15 ± 0.11 | 1 ± 0.057 | 1.01 ± 0.005 | 1 ± 0.051 | 1.06 ± 0.053 | 1.03 ± 0.2
3 | SG31 HEADNECK | 1.17 ± 0.26 | 1.05 ± 0.18 | 0.799 ± 0.1 | 0.948 ± 0.093 | 0.699 ± 0.084 | 1.02 ± 0.27 | 0.775 ± 0.23 | 0.846 ± 0.21 | 1.1 ± 0.23 | 1.23 ± 0.18 | 1.03 ± 0.095 | 1.13 ± 0.095 | 1.05 ± 0.15 | 0.975 ± 0.19 | 1.13 ± 0.18 | 1.42 ± 0.32
4 | SG32 HEADNECK | 1.05 ± 0.22 | 1.02 ± 0.1 | 1.07 ± 0.14 | 1.12 ± 0.17 | – | 1.67 ± 0.82 | 0.905 ± 0.23 | 0.801 ± 0.18 | 1.02 ± 0.14 | 0.975 ± 0.06 | 1.16 ± 0.25 | 0.989 ± 0.051 | 0.999 ± 0.018 | 1.05 ± 0.092 | 0.989 ± 0.2 | 1.01 ± 0.11
5 | SG43 HEADNECK | 0.869 ± 0.17 | 0.93 ± 0.22 | 0.84 ± 0.095 | 0.821 ± 0.067 | 0.711 ± 0.23 | 0.494 ± 0.12 | 0.304 ± 0.011 | 0.314 ± 0.13 | 0.856 ± 0.14 | 1.06 ± 0.048 | 0.867 ± 0.23 | 0.914 ± 0.025 | 0.822 ± 0.13 | 0.794 ± 0.19 | 0.848 ± 0.14 | 0.898 ± 0.22
6 | SIHA CERVIX | 1.05 ± 0.033 | 1.14 ± 0.021 | 1.06 ± 0.02 | 1.11 ± 0.037 | 1.03 ± 0.031 | 1.02 ± 0.086 | 1.05 ± 0.06 | 1.1 ± 0.042 | 1.02 ± 0.034 | 1.05 ± 0.041 | 1.116 ± 0.011 | 1.14 ± 0.066 | 1.07 ± 0.072 | 1.09 ± 0.045 | 1.09 ± 0.066 | 1.15 ± 0.02
7 | SJSA1 BONE | 1.471 ± 0.007 | 1.67 ± 0.035 | 1.67 ± 0.09 | 1.72 ± 0.04 | 1.62 ± 0.095 | 1.47 ± 0.077 | 1.42 ± 0.022 | 1.75 ± 0.037 | 1.62 ± 0.083 | 1.74 ± 0.059 | 1.65 ± 0.053 | 1.79 ± 0.04 | 1.67 ± 0.13 | 1.74 ± 0.092 | 1.61 ± 0.13 | 1.78 ± 0.078
8 | SKBR3 BREAST | 1.07 ± 0.057 | 1.06 ± 0.04 | 1.12 ± 0.12 | 1.01 ± 0.054 | 0.697 ± 0.026 | 0.508 ± 0.03 | 0.233 ± 0.014 | 0.171 ± 0.021 | 0.966 ± 0.15 | 1.06 ± 0.048 | 1.1 ± 0.1 | 1.07 ± 0.076 | 1.08 ± 0.053 | 1.09 ± 0.028 | 1.11 ± 0.12 | 1.04 ± 0.055
9 | SNU475 LIVER | 1.01 ± 0.013 | 1.03 ± 0.04 | 1.01 ± 0.027 | 0.992 ± 0.035 | 0.953 ± 0.042 | 1 ± 0.041 | 0.987 ± 0.047 | 0.954 ± 0.04 | 0.98 ± 0.043 | 1.04 ± 0.029 | 1.02 ± 0.06 | 0.988 ± 0.029 | 0.9453 ± 0.006 | 1.01 ± 0.014 | 0.99 ± 0.035 | 1.04 ± 0.017
10 | SUM44 BREAST | 1.05 ± 0.069 | 1.11 ± 0.19 | 1.11 ± 0.066 | 1.17 ± 0.21 | 1.04 ± 0.045 | 1.21 ± 0.17 | 1.08 ± 0.07 | 1.24 ± 0.18 | 1.1 ± 0.1 | 1.18 ± 0.28 | 1.19 ± 0.27 | 1.25 ± 0.36 | 1.1 ± 0.17 | 1.21 ± 0.26 | 1.2 ± 0.3 | 1.31 ± 0.41
